US8501911B2, “Methods of reducing inflammation and mucus hypersecretion” (Biomarck Pharmaceuticals, Ltd, priority 1999, dated 2013)
Residues, ends and D or L forms follow the SMILES beside them. *: point of attachment. Myristoyl = CCCCCCCCCCCCCC(=O)*

Tests used:
HL-60 clone 15 cells = assay: Inhibition of eosinophil peroxidase (EPO) release from HL-60 clone 15 cells; type: cell-based, human; settings: at 50 μM of test peptide; 100 nM PMA 2 hours
Description: The human promyelocytic cell line (Fischkoff S A, Graded increase in probability of eosinophilic differentiation of HL-60 promyelocytic leukemia cells induced by culture under alkaline conditions. Leuk. Res., 12:679-686, 1988; Rosenberg H F, Ackerman S J, Tenen D G. Human eosinophil cationic protein: molecular cloning of a cytotoxin and helminthotoxin with ribonuclease activity. J. Exp. Med., 170:163-176, 1989), HL-60 clone 15, is eosinophil-like promyelocytic human cell line which was purchased from American Type Culture Collection (ATCC) Rockville, Md. (catalog #CRL-1964). The cells were maintained in medium consisting of RPMI 1640 with glutamine supplemented with 10% heat inactivated fetal bovine serum (Gibco, Carlsbad, Calif.), 50 IU/mL penicillin, 50 μg/mL streptomycin, and 25 mM HEPES buffer, pH 7.8 at 37° C. in an atmosphere containing 5% CO2. Final differentiation of an eosinophil-like phenotype was initiated by culturing the cells at 5×10^5 cells/mL in the above medium containing 0.5 mM butyric acid (Sigma-Aldrich) for 5 days as previously described by Tiffany H L, Li F, and Rosenberg H F, Hyperglycosylation of eosinophil ribonuclease in a promyelocytic leukemia cell line and in differentiated peripheral blood progenitor cells J. Leukoc. Biol. 58: 49-54, 1995; and by Tiffany H L, Alkhatib G, Combadiere C, Berger E A, and Murphy P M., CC Chemokine receptors are differentially regulated by IL-5 during maturation of eosinophilic HL-60 cells. J. Immunol. 160:1385-1392, 1998. The cells were washed and resuspended at 2.5×10^6 per mL in phenol free RPMI-1640 (Cellgro; Mediatech Inc.). Aliquots of cells in 15 mL plastic tubes were preincubated with indicated concentration of test peptide (dissolved in PBS, pH 7.0) for 10 minutes followed by treatment of the cells with 100 nM PMA for 2 hours. The reaction was terminated by placing the tubes on ice and centrifugation of cells at 400 g for 5 min at 4° C. The eosinophil peroxidase (EPO) activity released by HL-60 clone 15 cells was assayed using TMB according to a previously established technique Paige et al (see above) and by Lacy P, Mahmudi-Azer S, Bablitz B, Hagen S C, Velazquez J R, Man S F, Moqbel R. Rapid mobilization of intracellularly stored RANTES in response to interferon-gamma in human eosinophils. Blood 94:23-32, 1999. Briefly, add 50 μL aliquots of the supernatant to 96-well microtiter plate followed by addition of 100 μL of the tetramethylbenzidine (TMB) substrate solution and incubate at room temperature for 15 minutes. The reaction was terminated by addition of 50 μL of 1.0 M sulfuric acid and absorbance was read at 450 nm in a spectrophotometric microplate reader (Molecular Devices, Sunnyvale, Calif.). The amount of secreted EPO was expressed as percentage of total content using the amount obtained in the same number of triton X-100-lysed cells.
Because standard EPO from HL-60 clone 15 cells was not available to use for quantification, we measured both released and intracellular (from lysed cells) levels of EPO, and expressed the released EPO as a percentage of total (intracellular and released) for each. To measure intracellular EPO in HL-60 clone 15 cells, appropriate aliquots of 0.1% triton X-100-lysed cells were taken for quantification of intracellular EPO as described above. All data are expressed as percentage of control to minimize variability between cultures.

U937 cells = assay: Inhibition of lysozyme release from U937 cells; type: cell-based, human; settings: for % Inhibition Lysozyme: at 50 μM of test peptide, 100 nM PMA; for Effect on PMA stimulated lysozyme secretion: pre-incubation with 50 to 100 μM (RNS: any time point or concentration tested)
Experimental: U937 is a monocyte-like human cell line which was purchased from American Type Culture Collection (ATCC) Rockville, Md. (catalog #CRL-15932). The cells were maintained in medium consisting of RPMI 1640 with glutamine supplemented with 10% heat inactivated fetal bovine serum (Gibco, Carlsbad, Calif.), 50 IU/mL, penicillin, 50 μg/mL streptomycin at 37° C. in an atmosphere containing 5% CO2. U937 cells were washed and resuspended at 2.5×10^6 cells/mL in phenol red free RPMI-1640 medium (Cellgro, Mediatech Inc.). Aliquots of cells in 15 mL plastic tubes were preincubated with indicated concentrations of test peptides (dissolved in PBS, pH 7.0) for 10 min at 37° C. The cells were then stimulated with 100 nM PMA for 1 hour. The cells were then centrifuged at 400×g for 5 min at 4° C. Lysozyme released from U937 cells was measured using spectrophotometric assay as described previously by Ralph et al., 1976. (Ralph P, Moore M A S, and Nilsson K. Lysozyme synthesis by established human and murine histocytic lymphoma cell lines. J. Exp. Med. 143:1528-33, 1976). Briefly. 100 μL of supernatants were placed in a 96-well microtiter plate and mixed with 100 μL of a Micrococcus lysodeikticus (Sigma-Aldrich) suspension (0.3 mg/mL in 0.1 M sodium phosphate buffer, pH 7.0), incubated for […] at room temperature and decrease in absorbance at 450 nm was measured. Chicken egg white lysozyme (EMD Biosciences) was used as a standard.

[1] = Solubility in 0.5 N saline; type: physicochemical; settings: in 0.5 N Saline at pH 6.5

Row | SMILES | % Inhibition EPO (HL-60 clone 15 cells) [%] | % Inhibition Lysozyme (U937 cells) [%] | Effect on PMA stimulated lysozyme secretion (U937 cells) | solubility [1] [µg/mL]
1 | CCCCCCCCCCCCCC(=O)NCC(=O)N[C@@H](C)C(=O)N[C@@H](CCC(N)=O)C(=O)N[C@@H](Cc1ccccc1)C(=O)N[C@@H](CO)C(=O)N[C@@H](CCCCN)C(=O)N[C@H](C(=O)N[C@@H](C)C(=O)N[C@@H](C)C(=O)N[C@@H](CCCCN)C(=O)NCC(=O)N[C@@H](CCC(=O)O)C(=O)N[C@@H](C)C(=O)N[C@@H](C)C(=O)N[C@@H](C)C(=O)N[C@@H](CCC(=O)O)C(=O)N[C@@H](CCCNC(=N)N)C(=O)N1CCC[C@H]1C(=O)NCC(=O)N[C@@H](CCC(=O)O)C(=O)N[C@@H](C)C(=O)N[C@@H](C)C(=O)N[C@H](C(=O)N[C@@H](C)C(=O)O)C(C)C)[C@@H](C)O [MANS peptide] (Myristoyl-GAQFSKTAAKGEAAAERPGEAAVA-OH; C-terminus assumed) | 46.1 | 40.8 | significantly attenuated | < 5000
2 | CCCCCCCCCCCCCC(=O)NCC(=O)N[C@H](C(=O)N[C@@H](C)C(=O)N1CCC[C@H]1C(=O)N[C@@H](C)C(=O)N[C@@H](C)C(=O)N[C@@H](CCC(=O)O)C(=O)NCC(=O)N[C@@H](C)C(=O)NCC(=O)N[C@@H](C)C(=O)N[C@@H](CCC(=O)O)C(=O)N[C@H](C(=O)N[C@@H](CCCCN)C(=O)N[C@@H](CCCNC(=N)N)C(=O)N[C@@H](C)C(=O)N[C@@H](CO)C(=O)N[C@@H](C)C(=O)N[C@@H](CCC(=O)O)C(=O)N[C@@H](C)C(=O)N[C@@H](CCCCN)C(=O)N[C@@H](CCC(N)=O)C(=O)N[C@@H](C)C(=O)N[C@@H](Cc1ccccc1)C(=O)O)C(C)C)[C@@H](C)O [RNS peptide, reference compound] (Myristoyl-GTAPAAEGAGAEVKRASAEAKQAF-OH; C-terminus assumed) | 0 | 0 | did not affect | > 15000
3 | CCCCCCCCCCCCCC(=O)NCC(=O)N[C@@H](C)C(=O)N[C@@H](CCC(N)=O)C(=O)N[C@@H](Cc1ccccc1)C(=O)N[C@@H](CO)C(=O)N[C@@H](CCCCN)C(=O)N[C@H](C(=O)N[C@@H](C)C(=O)N[C@@H](C)C(=O)N[C@@H](CCCCN)C(=O)NCC(=O)N[C@@H](CCC(=O)O)C(=O)O)[C@@H](C)O [SEQ ID NO: 13, N-myristoyl-GAQFSKTAAKGE] (Myristoyl-GAQFSKTAAKGE-OH; C-terminus assumed) | 25.2 | 85.2 |  | > 2000
4 | CCCCCCCCCCCCCC(=O)NCC(=O)N[C@@H](C)C(=O)N[C@@H](CCC(N)=O)C(=O)N[C@@H](Cc1ccccc1)C(=O)N[C@@H](CO)C(=O)N[C@@H](CCCCN)C(=O)N[C@H](C(=O)N[C@@H](C)C(=O)N[C@@H](C)C(=O)N[C@@H](CCCCN)C(=O)O)[C@@H](C)O [SEQ ID NO: 15, N-myristoyl-GAQFSKTAAK] (Myristoyl-GAQFSKTAAK-OH; C-terminus assumed) | 37.4 | 56.6 |  | > 10000
